Structures can show the parent of a compound that is named as a salt.
Tested on: ionophore-induced LTB4 production
Assay: not given
Conditions: oral administration; cited from earlier work

Row | SMILES | inhibition of ionophore-induced LTB4 production in mouse blood ex vivo
1 | CN(CCCOc1ccc(Cc2ccccc2)cc1)CCC(=O)O.Cl [SC57461] | inhibition of ionophore-induced LTB4 production

Target: T1, purified recombinant human LTA4 hydrolase (hLTA4H) (Homo sapiens, UniProt P09960)
T1 construct: A human LTA4 hydrolase full-length cDNA clone (NM_000895) was purchased from OriGene Technologies; own knowledge: pDEST17 adds an N-terminal 6xHis; made in house; host or cells: Escherichia coli BL21-AI
T1 sequence (P09960 1-611): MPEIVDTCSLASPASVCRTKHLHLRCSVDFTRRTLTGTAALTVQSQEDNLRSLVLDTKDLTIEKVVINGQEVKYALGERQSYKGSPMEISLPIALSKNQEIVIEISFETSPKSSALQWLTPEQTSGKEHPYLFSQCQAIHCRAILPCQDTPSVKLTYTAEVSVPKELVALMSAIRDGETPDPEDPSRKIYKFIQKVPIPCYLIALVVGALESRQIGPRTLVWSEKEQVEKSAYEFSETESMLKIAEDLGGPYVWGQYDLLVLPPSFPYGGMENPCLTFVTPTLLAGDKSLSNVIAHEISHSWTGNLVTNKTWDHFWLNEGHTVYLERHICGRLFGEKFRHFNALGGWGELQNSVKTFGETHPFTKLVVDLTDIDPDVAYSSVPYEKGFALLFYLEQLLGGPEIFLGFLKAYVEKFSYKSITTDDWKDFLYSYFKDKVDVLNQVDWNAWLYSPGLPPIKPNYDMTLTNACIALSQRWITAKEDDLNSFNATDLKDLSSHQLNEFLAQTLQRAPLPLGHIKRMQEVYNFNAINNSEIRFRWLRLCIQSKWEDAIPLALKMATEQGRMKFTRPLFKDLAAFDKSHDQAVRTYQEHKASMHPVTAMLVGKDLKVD
Assay: In vitro assay testing inhibitory activity against purified recombinant human LTA4 hydrolase
Format: biochemical
Conditions: 200 nM recombinant enzyme, 2 μM LTA4, LTB4 measured by LC-MS/MS
Source text: (1) In Vitro Assay Testing Inhibitory Activity Against Purified Recombinant Human LTA4 Hydroase:
The gene was amplified by polmerase chain reaction and transferred via pDONR201 into the bacterial expression vector pDEST17 by recombination (both plasmids from Invitrogen, Carlsbad, Calif.). The resulting construct was transformed into Escherichia coli BL21-AI (Invitrogen), and expression was induced by chemical induction with arabinose. The recombinant enzyme was purified by chromatography on a FPLC system (Amersham Biosciences, Uppsala, Sweden) using immobilized metal affinity chromatography (Ni-NTA Superflow, Qiagen, Hilden, Germany) and anion exchange chromatography (MonoQ HR 10/10, Amersham Biosciences).
The compounds of the invention were incubated in a series of dilutions with 200 nM of recombinant enzyme in assay buffer (100 mM Tris-HCl, 100 mM NaCl, 5 mg/ml fatty-acid free BSA, 10% DMSO, pH 8.0) for 10 min at room temperature to allow binding between LTA4 hydrolase and the inhibitors. LTA4 was prepared by alkaline hydrolysis of LTA4 methyl ester (Biomol, Plymouth Meeting, Pa., or Cayman Chemicals, Ann Arbor, Mich.). A solution of 10 μg of the ester was dried under a nitrogen stream and redissolved in 60 μl of a solution of 80% aceton and 20% 0.25 M NaOH.
After incubation for 40 min at room temperature the resulting approximately 500 μM tock of LTA4 was kept at −80° C. for no more than a few days prior to use.
Immediately before the assay, LTA4 was diluted to a concentration of 10 μM in assay buffer (without DMSO) and added to the reaction mixture to a final concentration of 2 μM to initiate the enzyme reaction. […] The samples were then kept at 4° C. over night to complete protein precipitation and centrifuged for 15 min at 1800 g. LTB4 formed was measured by LC-MS/MS using LTB4-d4 as an internal standard and an external LTB4 standard (Biomol) as reference.

Row | IC50 [µM] | SMILES
2 | 5 to 20 | O=C(O)CCCN1CCN(c2ccc(Nc3ccccc3)cc2)CC1 [Example 3, 4-[4-(4-phenylamino-phenyl)-piperazin-1-yl]-butyric acid sodium salt]
3 | < 5 | c1ccc(Cc2ccc(N3CCNCC3)cc2)cc1 [Example 4, 1-(4-Benzyl-phenyl)-piperazine hydrochloride]
4 | < 5 | COC(=O)CCCN1CCN(c2ccc(Cc3ccccc3)cc2)CC1 [Example 5, 4-[4-(4-Benzyl-phenyl)-piperazin-1-yl]-butyric acid methyl ester]
5 | < 5 | O=C(O)CCCN1CCN(c2ccc(Cc3ccccc3)cc2)CC1 [Example 6, 4-[4-(4-Benzyl-phenyl)-piperazin-1-yl]-butyric acid sodium salt]
6 | < 5 | O=C(O)CCN1CCN(c2ccc(Cc3ccccc3)cc2)CC1 [Example 7, 3-[4-(4-Benzyl-phenyl)-piperazin-1-yl]-propionic acid sodium salt]
7 | 5 to 20 | NC1CCN(c2ccc(Oc3ccccc3)cc2)CC1 [Example 12, 1-(4-Phenoxy-phenyl)-piperidin-4-ylamine hydrochloride]
8 | < 5 | Ic1ccc(Oc2ccc(N3CCNCC3)cc2)cc1 [Example 14, 1-[4-(4-Iodo-phenoxy)-phenyl]-piperazine hydrochloride]
9 | < 5 | O=C(O)CCCN1CCN(c2ccc(Oc3ccc(I)cc3)cc2)CC1 [Example 15, 4-{4-[4-(4-Iodo-phenoxy)-phenyl]-piperazin-1-yl]-butyric acid sodium salt]
10 | < 5 | O=C(O)CCN1CCN(c2ccc(Oc3ccc(-c4ccsc4)cc3)cc2)CC1 [Example 16, 3-{4[4-(4-Thiophen-3-yl-phenoxy)-phenyl]-piperazin-1-yl}-propionic acid sodium salt]
11 | 5 to 20 | COc1ccc(Oc2ccc(N3CCNCC3)cc2)cc1 [Example 17, 1-[4-(4-Methoxy-phenoxy)-phenyl]-piperazine]
12 | < 5 | Cc1ccc(Oc2ccc(N3CCNCC3)cc2)cc1 [Example 18, 1-(4-p-Tolyloxy-phenyl]-piperazine]
13 | < 5 | FC(F)(F)c1ccc(Oc2ccc(N3CCNCC3)cc2)cc1 [Example 20, 1-[4-(4-Trifluoromethyl-phenoxy)-phenyl]-piperazine]
14 | < 5 | CC(=O)N1CCN(c2ccc(Oc3ccccc3)cc2)CC1 [Example 21, 1-[4-(4-Phenoxy-phenyl)-piperazin-1-yl]-ethanone]
15 | < 5 | c1cc(-c2ccc(Oc3ccc(N4CCNCC4)cc3)cc2)cs1 [Example 23, 1-[4-(4-Thiophen-3yl-phenoxy)-phenyl]-piperazine hydrochloride]
16 | < 5 | Ic1ccc(Oc2ccc(N3CCOCC3)cc2)cc1 [Example 24, 4-[4-(4-Iodo-phenoxy)-phenyl]-morpholine]
17 | < 5 | c1cc(-c2ccc(Oc3ccc(N4CCOCC4)cc3)cc2)cs1 [Example 25, 4-[4-(4-Thiophen-3-yl-phenoxy)-phenyl]-morpholine]
18 | 5 to 20 | Clc1ccc(-c2ccc(Oc3ccc(N4CCNCC4)cc3)cc2)s1 [Example 26, hydrochloride]

Tested on: ionophore-induced LTB4 production
Assay: not given
Conditions: oral administration; cited from earlier work
Remark: another data set of the same source

Row | SMILES | inhibition of ionophore-induced LTB4 production in rat peritoneum in vivo
19 | CN(CCCOc1ccc(Cc2ccccc2)cc1)CCC(=O)O.Cl [SC57461] | inhibition of ionophore-induced LTB4 production

Tested on: colitis symptoms
Assay: not given
Conditions: eight weeks of treatment, spontaneous colitis; cited from earlier work

Row | SMILES | colitis symptoms in a primate model
20 | CN(CCCOc1ccc(Cc2ccccc2)cc1)CCC(=O)O.Cl [SC57461] | significantly improved colitis symptoms

Reference: US7750012B2, “Biaryl nitrogen-heterocycle inhibitors of LTA4H for treating inflammation” (deCODE genetics ehf, priority 2005, dated 2010)
